≈ marks a conversion by molar mass, not a printed value.
How the values were obtained:
[1] = physchem; assay type: physicochemical
Description: The solubility assay was based on the addition of an excess of the drug to different solutions with increasing concentrations of two different cyclodextrins, 2-hydroxypropyl-β-cyclodextrin (HPβCD) or 2-hydroxypropyl-ɣ-cyclodextrin (HPγCD). […] Afterwards, the resultant solutions were centrifugated (Eppendorf® Centrifuge 5804R) at 12,000 rpm for 30 min and 25 °C. […] Each measurement was performed in triplicate.

[2] = Particle size of cyclodextrin/drug aggregates by TEM; assay type: physicochemical
Description: Samples were placed on copper grids and stained with 2% (w/v) phosphotungstic acid. Samples were dried and evaluated by TEM observation using an accelerating voltage of 200 kV.
Particle size was measured using Image-Pro Plus Image Analysis Software Version 6.0.0.260 (Media Cybernetics, Inc., Rockville, MD, USA).

solubility at 7 days [1]: 35.3 ± 14 µg/mL (≈ 53 µM) | average particle size (TEM) ([2]; saturated solution of natamycin in 40% (w/v) HPβCD): 80.25 ± 35.81 nm | average particle size (TEM) ([2]; saturated solution of natamycin in 40% (w/v) HPβCD with 1% (w/v) voriconazole): 148.96 ± 32.89 nm
SMILES: C[C@@H]1C/C=C/C=C/C=C/C=C/[C@H](O[C@@H]2O[C@H](C)[C@@H](O)[C@H](N)[C@@H]2O)C[C@@H]2O[C@](O)(C[C@@H](O)C[C@H]3O[C@@H]3/C=C/C(=O)O1)C[C@H](O)[C@H]2C(=O)O [Natamycin]

From publication PMC9866460, “Antifungal Combination Eye Drops for Fungal Keratitis Treatment” (Pharmaceutics, 2022)
